From BindingDB's records for patent US20240018151 (Tme Therapeutics, 2024)
pIC50: −log10 of the molar value.

Biological target: 1-phosphatidylinositol 3-phosphate 5-kinase (Homo sapiens, UniProt Q9Y2I7)
Test: ADP-GLO Kinase Assay
Method: Briefly, 4 compound solution and 4 ATP solution are prepared with assay buffer (50 mM MOPS, 1 mM DTT, pH7.2). 4 Substrate solution and 4 kinase/Metal solution are prepared with MOPS based buffer containing individual kinase specific additives. Then, […], 5 μL of 4 Substrate solution, 5 μL of 4 ATP solution, and 5 μL of 4 kinase/Metal solution are mixed and incubated in a well of polystyrene 384 well black microplate for 1 hour at room temperature. Next, 20 μL of ADP-Glo Reagent (Promega) is added to the well,and incubated for over 40 minutes. 40 μL of Kinase Detection Reagent (Promega) is added to the well, and incubated for over 40 minutes. The kinase reaction is evaluated by the endpoint luminescence of the well. For measurement of PIKFYVE activity, the substrate is PI3P at 10,000 nM concentration, using AG-182 as a positive control. The metal used is magnesium at 5 mM concentration.

Sequence of 1-phosphatidylinositol 3-phosphate 5-kinase (Q9Y2I7 whole entry): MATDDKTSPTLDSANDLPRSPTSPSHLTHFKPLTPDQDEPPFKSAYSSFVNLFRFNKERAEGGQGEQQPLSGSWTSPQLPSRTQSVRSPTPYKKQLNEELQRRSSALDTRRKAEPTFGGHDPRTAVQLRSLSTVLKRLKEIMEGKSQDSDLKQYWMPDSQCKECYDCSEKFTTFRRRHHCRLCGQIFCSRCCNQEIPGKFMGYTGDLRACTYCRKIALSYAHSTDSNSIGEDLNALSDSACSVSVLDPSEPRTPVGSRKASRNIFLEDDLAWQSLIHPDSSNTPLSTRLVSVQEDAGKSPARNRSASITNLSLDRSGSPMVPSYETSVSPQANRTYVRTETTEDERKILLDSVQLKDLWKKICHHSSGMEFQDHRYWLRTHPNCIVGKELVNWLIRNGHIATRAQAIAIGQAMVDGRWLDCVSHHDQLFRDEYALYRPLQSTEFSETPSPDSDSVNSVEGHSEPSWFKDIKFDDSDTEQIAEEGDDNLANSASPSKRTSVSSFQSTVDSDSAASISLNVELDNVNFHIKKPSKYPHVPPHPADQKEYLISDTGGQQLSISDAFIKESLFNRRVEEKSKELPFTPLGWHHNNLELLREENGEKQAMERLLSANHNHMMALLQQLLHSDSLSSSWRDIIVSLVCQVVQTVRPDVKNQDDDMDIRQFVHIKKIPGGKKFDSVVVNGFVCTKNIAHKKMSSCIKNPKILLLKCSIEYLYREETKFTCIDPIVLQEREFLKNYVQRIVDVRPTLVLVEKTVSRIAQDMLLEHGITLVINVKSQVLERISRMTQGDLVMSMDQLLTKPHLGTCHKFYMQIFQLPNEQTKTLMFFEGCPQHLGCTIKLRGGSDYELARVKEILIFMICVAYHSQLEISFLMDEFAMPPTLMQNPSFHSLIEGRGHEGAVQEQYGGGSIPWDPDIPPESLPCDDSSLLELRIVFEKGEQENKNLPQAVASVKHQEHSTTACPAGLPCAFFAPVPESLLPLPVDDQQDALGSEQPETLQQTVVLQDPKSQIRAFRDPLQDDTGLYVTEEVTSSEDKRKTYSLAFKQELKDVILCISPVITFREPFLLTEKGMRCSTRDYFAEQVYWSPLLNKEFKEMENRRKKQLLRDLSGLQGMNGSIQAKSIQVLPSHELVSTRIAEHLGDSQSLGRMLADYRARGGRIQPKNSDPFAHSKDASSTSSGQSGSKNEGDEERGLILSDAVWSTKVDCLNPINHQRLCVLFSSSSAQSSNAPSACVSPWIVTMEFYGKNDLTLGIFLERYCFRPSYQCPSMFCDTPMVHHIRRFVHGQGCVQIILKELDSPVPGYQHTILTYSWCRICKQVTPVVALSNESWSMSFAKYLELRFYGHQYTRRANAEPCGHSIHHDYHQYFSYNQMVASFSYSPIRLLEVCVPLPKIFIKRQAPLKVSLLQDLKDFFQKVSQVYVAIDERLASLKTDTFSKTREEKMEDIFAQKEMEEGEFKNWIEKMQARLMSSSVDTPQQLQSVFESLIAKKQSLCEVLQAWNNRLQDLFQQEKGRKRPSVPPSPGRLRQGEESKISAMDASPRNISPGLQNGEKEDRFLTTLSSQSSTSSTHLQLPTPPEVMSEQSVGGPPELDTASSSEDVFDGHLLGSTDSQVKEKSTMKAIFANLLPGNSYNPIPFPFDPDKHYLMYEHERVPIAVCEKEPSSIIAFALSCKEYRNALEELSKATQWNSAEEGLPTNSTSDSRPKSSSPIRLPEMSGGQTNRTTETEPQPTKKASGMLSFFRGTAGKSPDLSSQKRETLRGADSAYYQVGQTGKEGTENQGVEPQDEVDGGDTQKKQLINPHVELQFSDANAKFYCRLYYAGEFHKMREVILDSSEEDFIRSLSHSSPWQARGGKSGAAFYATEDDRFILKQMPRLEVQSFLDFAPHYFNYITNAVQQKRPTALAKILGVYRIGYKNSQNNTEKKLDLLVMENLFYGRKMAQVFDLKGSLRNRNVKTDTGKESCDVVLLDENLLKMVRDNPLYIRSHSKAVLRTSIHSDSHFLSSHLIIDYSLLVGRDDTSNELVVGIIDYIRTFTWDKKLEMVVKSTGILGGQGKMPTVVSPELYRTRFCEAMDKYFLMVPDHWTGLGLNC

Brc1cccc(-c2ccn(-c3cc(N4CCOCC4)n4nc(-c5ccncc5)cc4n3)n2)c1 [US20240018151, Example 3]
pIC50: > 7.30
